This passage reports EC50 and Emax results from paper PMC5518309 (ChemMedChem, 2014).

Numbered stars: 1 amine (or outer) side, 2 acyl side, 3 side chain; on linkers, the order of the positions; unused ones are H or OH. Side chains are listed from the residue outwards. Ends that are not written are not given here. Peptide text beside a SMILES is read from it. * marks the point of attachment. Arachidoyl = CCCCCCCCCCCCCCCCCCCC(=O)*; γGlu = O=C(O)[C@H](CCC(=O)[*:2])N[*:1]; Palmitoyl = CCCCCCCCCCCCCCCC(=O)*; Lauroyl = CCCCCCCCCCCC(=O)*; Octanoyl = CCCCCCCC(=O)*

Common to all, as to type: cell-based
The target in one assay is T1, hY1R (Homo sapiens, UniProt P25929).
T1 sequence (P25929 1-384): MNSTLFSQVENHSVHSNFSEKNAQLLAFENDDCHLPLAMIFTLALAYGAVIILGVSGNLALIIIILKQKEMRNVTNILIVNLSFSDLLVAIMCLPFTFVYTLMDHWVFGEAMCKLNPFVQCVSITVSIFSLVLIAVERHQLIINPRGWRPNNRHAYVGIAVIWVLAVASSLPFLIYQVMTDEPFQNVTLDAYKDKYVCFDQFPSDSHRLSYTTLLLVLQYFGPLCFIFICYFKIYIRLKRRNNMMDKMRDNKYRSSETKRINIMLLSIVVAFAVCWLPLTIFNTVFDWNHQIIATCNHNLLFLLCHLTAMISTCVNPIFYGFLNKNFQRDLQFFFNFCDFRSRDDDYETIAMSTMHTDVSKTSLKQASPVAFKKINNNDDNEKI
Description: Inositol phosphate accumulation assay, hY1R. The conditions noted are these: for Emax: read-out: hY1R Emax.

A further assay has as its target hY4R (Homo sapiens, UniProt P50391). In words: Inositol phosphate accumulation assay, hY4R. The conditions noted are these: for Emax: read-out: hY4R Emax.
Another assay deals with T2, hY5R (Homo sapiens, UniProt Q15761).
T2 sequence (Q15761 1-445): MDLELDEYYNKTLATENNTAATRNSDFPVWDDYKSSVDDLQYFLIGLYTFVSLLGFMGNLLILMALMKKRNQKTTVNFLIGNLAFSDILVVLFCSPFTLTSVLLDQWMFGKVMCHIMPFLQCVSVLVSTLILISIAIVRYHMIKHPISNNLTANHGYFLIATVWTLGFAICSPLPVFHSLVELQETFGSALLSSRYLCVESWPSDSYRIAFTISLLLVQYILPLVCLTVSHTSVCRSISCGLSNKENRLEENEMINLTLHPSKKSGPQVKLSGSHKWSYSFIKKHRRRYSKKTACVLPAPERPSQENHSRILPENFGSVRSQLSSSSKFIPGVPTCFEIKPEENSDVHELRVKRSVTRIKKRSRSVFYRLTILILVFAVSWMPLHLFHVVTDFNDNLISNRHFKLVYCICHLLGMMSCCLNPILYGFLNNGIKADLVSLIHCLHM
In words: Inositol phosphate accumulation assay, hY5R. The conditions noted are these: for Emax: read-out: hY5R Emax.

The target in a further assay is T3, hY2R (Homo sapiens, UniProt P49146).
T3 sequence (P49146 1-381): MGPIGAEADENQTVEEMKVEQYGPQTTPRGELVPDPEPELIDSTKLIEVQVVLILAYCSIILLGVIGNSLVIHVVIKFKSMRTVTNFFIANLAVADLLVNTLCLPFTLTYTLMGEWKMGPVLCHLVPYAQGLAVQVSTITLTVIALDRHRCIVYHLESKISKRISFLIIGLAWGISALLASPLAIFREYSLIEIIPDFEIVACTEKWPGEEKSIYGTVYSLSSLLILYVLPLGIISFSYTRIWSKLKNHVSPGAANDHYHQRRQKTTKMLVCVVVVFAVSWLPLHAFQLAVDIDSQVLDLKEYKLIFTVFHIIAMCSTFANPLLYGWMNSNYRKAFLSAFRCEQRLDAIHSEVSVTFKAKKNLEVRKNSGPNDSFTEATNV
Description: Inositol phosphate accumulation assay, hY2R. The conditions noted are these: for Emax: read-out: hY2R Emax.

Chain of hY4R (P50391 whole entry): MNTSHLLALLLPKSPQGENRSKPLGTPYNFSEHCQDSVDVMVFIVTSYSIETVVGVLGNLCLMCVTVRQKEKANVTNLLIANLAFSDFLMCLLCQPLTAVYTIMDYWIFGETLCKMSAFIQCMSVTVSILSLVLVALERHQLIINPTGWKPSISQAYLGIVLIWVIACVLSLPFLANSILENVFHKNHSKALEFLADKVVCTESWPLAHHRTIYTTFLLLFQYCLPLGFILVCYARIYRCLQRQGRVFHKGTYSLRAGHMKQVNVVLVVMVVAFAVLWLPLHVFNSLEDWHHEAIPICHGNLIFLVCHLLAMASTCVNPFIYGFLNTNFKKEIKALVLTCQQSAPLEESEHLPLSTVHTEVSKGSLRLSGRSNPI

The EC50 is the concentration needed to bring the measured effect to its halfway point. By Emax is commonly meant the greatest response seen or fitted, relative to the assay's reference. For the compound `CCCCCCCCCCCCCCCCCCCC(=O)N[C@@H](CCC(=O)NCCCC[C@H](NC(=O)[C@H](CC(N)=O)NC(=O)[C@@H](NC(=O)[C@H](Cc1ccc(O)cc1)NC(=O)[C@H](CCCNC(=N)N)NC(=O)[C@H](CCCNC(=N)N)NC(=O)[C@H](CC(C)C)NC(=O)[C@H](CC(=O)O)NC(=O)[C@H](C)NC(=O)[C@H](C)NC(=O)[C@H](Cc1ccc(O)cc1)NC(=O)[C@H](CCC(N)=O)NC(=O)[C@H](C)NC(=O)[C@H](CCSC)NC(=O)[C@H](CCC(N)=O)NC(=O)[C@H](CCC(=O)O)NC(=O)[C@@H]1CCCN1C(=O)[C@@H](NC(=O)[C@H](C)NC(=O)[C@H](CC(N)=O)NC(=O)[C@H](CC(=O)O)NC(=O)CNC(=O)[C@@H]1CCCN1C(=O)[C@H](Cc1ccc(O)cc1)NC(=O)[C@@H](NC(=O)[C@@H]1CCCN1C(=O)[C@H](CCC(=O)O)NC(=O)[C@H](CC(C)C)NC(=O)[C@@H]1CCCN1)C(C)C)[C@@H](C)O)[C@@H](C)CC)C(=O)N[C@@H](CC(C)C)C(=O)N[C@H](C(=O)N[C@@H](CCCNC(=N)N)C(=O)N1CCC[C@H]1C(=O)N[C@@H](CCCNC(=N)N)C(=O)N[C@@H](Cc1ccc(O)cc1)C(N)=O)[C@@H](C)O)C(=O)O` [compound 19, [K^30(E-Ara)]hPP2–36] (H-PLEPVYPGDNATPEQMAQYAADLRRYINK([γGlu-Arachidoyl])LTRPRY-NH2), the concentration for a half-maximal effect (EC50) on hY1R was determined as 25.1 nM; on hY4R it was 2.5 nM; at hY5R, 0.6 nM; on hY2R, 4.9 nM. Also, the maximal effect (Emax) at hY1R came to 98 ± 4%; on hY4R, 84 ± 7%; on hY5R, 69 ± 10%; on hY2R, 88 ± 5%.

Turning to “PLEPVYPGDNATPEQMAQYAKDLRRYINMLTRPRY-NH2 [compound 8, [K^22]hPP2–36]”, the concentration giving a half-maximal response (EC50) was 51.4 nM at hY1R, 1.9 nM at hY4R, 6.1 nM at hY5R and 67.1 nM on hY2R. Also, the maximal effect (Emax) on hY1R stood at 101 ± 7%; at hY4R it was 91 ± 3%; on hY5R, 89 ± 5%; on hY2R, 107 ± 4%.

In the case of `CCCCCCCCCCCCCCCC(=O)N[C@@H](CCC(=O)NCCCC[C@H](NC(=O)[C@H](CC(N)=O)NC(=O)[C@@H](NC(=O)[C@H](Cc1ccc(O)cc1)NC(=O)[C@H](CCCNC(=N)N)NC(=O)[C@H](CCCNC(=N)N)NC(=O)[C@H](CC(C)C)NC(=O)[C@H](CC(=O)O)NC(=O)[C@H](C)NC(=O)[C@H](C)NC(=O)[C@H](Cc1ccc(O)cc1)NC(=O)[C@H](CCC(N)=O)NC(=O)[C@H](C)NC(=O)[C@H](CCSC)NC(=O)[C@H](CCC(N)=O)NC(=O)[C@H](CCC(=O)O)NC(=O)[C@@H]1CCCN1C(=O)[C@@H](NC(=O)[C@H](C)NC(=O)[C@H](CC(N)=O)NC(=O)[C@H](CC(=O)O)NC(=O)CNC(=O)[C@@H]1CCCN1C(=O)[C@H](Cc1ccc(O)cc1)NC(=O)[C@@H](NC(=O)[C@@H]1CCCN1C(=O)[C@H](CCC(=O)O)NC(=O)[C@H](CC(C)C)NC(=O)[C@@H]1CCCN1)C(C)C)[C@@H](C)O)[C@@H](C)CC)C(=O)N[C@@H](CC(C)C)C(=O)N[C@H](C(=O)N[C@@H](CCCNC(=N)N)C(=O)N1CCC[C@H]1C(=O)N[C@@H](CCCNC(=N)N)C(=O)N[C@@H](Cc1ccc(O)cc1)C(N)=O)[C@@H](C)O)C(=O)O` [18a, [K^30(E-Pam)]hPP2–36] (H-PLEPVYPGDNATPEQMAQYAADLRRYINK([γGlu-Palmitoyl])LTRPRY-NH2), the EC50 at hY1R amounted to 76.2 nM; on hY4R, 1.2 nM; on hY5R it was 1.6 nM; on hY2R, 21.1 nM. The maximal effect (Emax) at hY1R was 85 ± 3%; on hY4R it was 78 ± 4%; on hY5R, 75 ± 5%; at hY2R it was 92 ± 3%.

For the compound `CCCCCCCCCCCCCCCC(=O)N[C@@H](CCC(=O)NCCCC[C@H](NC(=O)[C@H](C)NC(=O)[C@H](Cc1ccc(O)cc1)NC(=O)[C@H](CCC(N)=O)NC(=O)[C@H](C)NC(=O)[C@H](CCSC)NC(=O)[C@H](CCC(N)=O)NC(=O)[C@H](CCC(=O)O)NC(=O)[C@@H]1CCCN1C(=O)[C@@H](NC(=O)[C@H](C)NC(=O)[C@H](CC(N)=O)NC(=O)[C@H](CC(=O)O)NC(=O)CNC(=O)[C@@H]1CCCN1C(=O)[C@H](Cc1ccc(O)cc1)NC(=O)[C@@H](NC(=O)[C@@H]1CCCN1C(=O)[C@H](CCC(=O)O)NC(=O)[C@H](CC(C)C)NC(=O)[C@@H]1CCCN1)C(C)C)[C@@H](C)O)C(=O)N[C@@H](CC(=O)O)C(=O)N[C@@H](CC(C)C)C(=O)N[C@@H](CCCNC(=N)N)C(=O)N[C@@H](CCCNC(=N)N)C(=O)N[C@@H](Cc1ccc(O)cc1)C(=O)N[C@H](C(=O)N[C@@H](CC(N)=O)C(=O)N[C@@H](CCSC)C(=O)N[C@@H](CC(C)C)C(=O)N[C@H](C(=O)N[C@@H](CCCNC(=N)N)C(=O)N1CCC[C@H]1C(=O)N[C@@H](CCCNC(=N)N)C(=O)N[C@@H](Cc1ccc(O)cc1)C(N)=O)[C@@H](C)O)[C@@H](C)CC)C(=O)O` [compound 12, [K^22(E-Pam)]hPP2–36] (H-PLEPVYPGDNATPEQMAQYAK([γGlu-Palmitoyl])DLRRYINMLTRPRY-NH2), the concentration for a half-maximal effect (EC50) on hY1R was found to be 16.5 nM; on hY4R, 1.5 nM; at hY5R, 1.9 nM; at hY2R, 1.7 nM. The Emax on hY1R was 93 ± 6%; at hY4R, 78 ± 4%; at hY5R it was 81 ± 6%; on hY2R, 103 ± 12%.

Take `CCCCCCCC(=O)N[C@@H](CCC(=O)NCCCC[C@H](NC(=O)[C@H](C)NC(=O)[C@H](Cc1ccc(O)cc1)NC(=O)[C@H](CCC(N)=O)NC(=O)[C@H](C)NC(=O)[C@H](CCSC)NC(=O)[C@H](CCC(N)=O)NC(=O)[C@H](CCC(=O)O)NC(=O)[C@@H]1CCCN1C(=O)[C@@H](NC(=O)[C@H](C)NC(=O)[C@H](CC(N)=O)NC(=O)[C@H](CC(=O)O)NC(=O)CNC(=O)[C@@H]1CCCN1C(=O)[C@H](Cc1ccc(O)cc1)NC(=O)[C@@H](NC(=O)[C@@H]1CCCN1C(=O)[C@H](CCC(=O)O)NC(=O)[C@H](CC(C)C)NC(=O)[C@@H]1CCCN1)C(C)C)[C@@H](C)O)C(=O)N[C@@H](CC(=O)O)C(=O)N[C@@H](CC(C)C)C(=O)N[C@@H](CCCNC(=N)N)C(=O)N[C@@H](CCCNC(=N)N)C(=O)N[C@@H](Cc1ccc(O)cc1)C(=O)N[C@H](C(=O)N[C@@H](CC(N)=O)C(=O)N[C@@H](CCSC)C(=O)N[C@@H](CC(C)C)C(=O)N[C@H](C(=O)N[C@@H](CCCNC(=N)N)C(=O)N1CCC[C@H]1C(=O)N[C@@H](CCCNC(=N)N)C(=O)N[C@@H](Cc1ccc(O)cc1)C(N)=O)[C@@H](C)O)[C@@H](C)CC)C(=O)O` [compound 10, [K^22(E-Capr)]hPP2–36] (H-PLEPVYPGDNATPEQMAQYAK([γGlu-Octanoyl])DLRRYINMLTRPRY-NH2): the EC50 on hY1R is above 1000 nM; on hY4R, 3.1 nM; on hY5R, 26 nM; at hY2R, above 1000 nM. For the same compound, the maximal effect (Emax) came to 84 ± 4% at hY1R, 91 ± 4% at hY4R, 84 ± 4% at hY5R and 88 ± 7% at hY2R.

Consider `CCCCCCCCCCCC(=O)N[C@@H](CCC(=O)NCCCC[C@H](NC(=O)[C@H](CC(N)=O)NC(=O)[C@@H](NC(=O)[C@H](Cc1ccc(O)cc1)NC(=O)[C@H](CCCNC(=N)N)NC(=O)[C@H](CCCNC(=N)N)NC(=O)[C@H](CC(C)C)NC(=O)[C@H](CC(=O)O)NC(=O)[C@H](C)NC(=O)[C@H](C)NC(=O)[C@H](Cc1ccc(O)cc1)NC(=O)[C@H](CCC(N)=O)NC(=O)[C@H](C)NC(=O)[C@H](CCSC)NC(=O)[C@H](CCC(N)=O)NC(=O)[C@H](CCC(=O)O)NC(=O)[C@@H]1CCCN1C(=O)[C@@H](NC(=O)[C@H](C)NC(=O)[C@H](CC(N)=O)NC(=O)[C@H](CC(=O)O)NC(=O)CNC(=O)[C@@H]1CCCN1C(=O)[C@H](Cc1ccc(O)cc1)NC(=O)[C@@H](NC(=O)[C@@H]1CCCN1C(=O)[C@H](CCC(=O)O)NC(=O)[C@H](CC(C)C)NC(=O)[C@@H]1CCCN1)C(C)C)[C@@H](C)O)[C@@H](C)CC)C(=O)N[C@@H](CC(C)C)C(=O)N[C@H](C(=O)N[C@@H](CCCNC(=N)N)C(=O)N1CCC[C@H]1C(=O)N[C@@H](CCCNC(=N)N)C(=O)N[C@@H](Cc1ccc(O)cc1)C(N)=O)[C@@H](C)O)C(=O)O` [compound 17, [K^30(E-Laur)]hPP2–36] (H-PLEPVYPGDNATPEQMAQYAADLRRYINK([γGlu-Lauroyl])LTRPRY-NH2), for which the 50% effective concentration (EC50) on hY1R is above 1000 nM; on hY4R it was 3.6 nM; on hY5R, 38.8 nM; at hY2R it was 296 nM. Moreover, the Emax is 81 ± 4% at hY1R, 83 ± 5% at hY4R, 81 ± 5% on hY5R and 98 ± 4% on hY2R.
